Literature values, collected in patent US12026655B2, “Systems and methods for post-harvest crop quality management” (priority 2017, dated 2024).
Read-outs that look alike come from different tables or passages of the source.

How the values were obtained:
Rhyzopertha dominica = details: e(x, t)>1 means at least 99.9% of the insect population killed
[1] = tested on: tobacco moth and susceptible cigarette beetle
[2] = tested on: resistant cigarette beetle
[3] = tobacco temperature 16-20 °C (61-68 °F), 300 ppm phosphine at the bale/case centre

For P [phosphine], the “empirical constant a1 of the extinction indicator function e(x, t)” value (Rhyzopertha dominica) is given as 4.04, the “empirical constant a2 of the extinction indicator function e(x, t)” value (Rhyzopertha dominica) is given as 0.6105 and the “Minimum Exposure Time to achieve 100% control of all development stages” value [1, 3] is given as 6 days. For the same compound, the “Minimum Exposure Time to achieve 100% control of all development stages” value ([1]; tobacco temperature >20 °C (>68 °F), 200 ppm phosphine at the bale/case centre) was 4 days, the “Minimum Exposure Time to achieve 100% control of all development stages” value [2, 3] was 12 days and the “Minimum Exposure Time to achieve 100% control of all development stages” value ([2]; tobacco temperature 20-25 °C (68-77 °F), 300 ppm phosphine at the bale/case centre) was 12 days. The “Minimum Exposure Time to achieve 100% control of all development stages” value ([2]; tobacco temperature 20-25 °C (68-77 °F), 700 ppm phosphine at the bale/case centre) was 10 days, the “Minimum Exposure Time to achieve 100% control of all development stages” value ([2]; tobacco temperature >25 °C (>77 °F), 300 ppm phosphine at the bale/case centre) was 12 days and the “Minimum Exposure Time to achieve 100% control of all development stages” value ([2]; tobacco temperature >25 °C (>77 °F), 600 ppm phosphine at the bale/case centre) was 6 days.
